{"source": "patent US8518993B2", "about": "“Combination of bioavailable methionine with at least one essential oil” (Adisseo Ireland Ltd., priority 2005, dated 2013)", "system": "ileal flora of meat chicken", "assay": "Gas production in vitro by ileal contents of meat chicken (wheat-based diet)", "type": "cell-based", "text": "The purpose of the following tests is to compare the production of gas by the flora of the ileal contents of meat chicken, in relation to various test parameters. The production of gas is an indirect indicator of the bacterial activity of the ileal flora of the chicken.\n50 meat chicken are raised with a wheat-based diet. These chicken are raised with the same nutritional regimen. The chicken are sacrificed on the 35th day, then the contents of their ileum are removed in anaerobic conditions. The contents are placed in bottles which are stored at −18° C.\nBased on the experimental design described in Table I below, the volume of gas produced is measured as a function of time.\n48 bottles are filled successively with:\nthe treatment (nothing for the negative control, HMTBA, EO or the test item),\n90 ml of buffer solution, containing wheat starch (nutrient medium for the bacteria); the function of this buffer solution is to maintain a constant pH and suppress O2\n10 ml of inoculum, comprising a mixture of ¼ of ileal contents and ¾ of sterile physiological solution, which is filtered and homogenized before filling.\nThe doses tested are calculated to be representative of the concentrations of the products that would be found in the gastrointestinal contents of the animals.\nUsing the experimental design described in Table I above, curves of the volume of gas produced as a function of time are obtained, and are mostly sigmoidal.\nThese curves are modelled according to the following model: Y=A/(1+(C/t)^B) where\nA, B and C=parameters of the model\nUsing these equations, we then analyse the modelled final volume Vf (Vf=A), as well as the time for which the rate of production of gas is maximum, called Trm (this time is used as an indirect measure of the latency, which is not accessible with this model). […] If the probability of the treatment effect is significant, i.e. if p<0.05, the means are then compared by the Fisher PLSD test, which makes it possible to establish the differences on the means between the various treatments.\nThe experimental conditions and parameters of Example 1 are repeated in Example 2, according to Table III below.\nThe experimental conditions and parameters of example 1 are repeated in Example 3, according to Table V below.\nThe experimental conditions and parameters of Example 1 are repeated in example 4, according to Table VII below.\nFor this test, ileal flora derived from 35-day-old chickens fed with a wheat-based diet is used.\nIn this test, one of the mixtures tested in Example 1 is tested.", "key": {"[1]": {"details": "Example 1, wheat-based diet, HMTBA 83 mg, EO 28-50 mg per bottle (Table I), 4 repetitions"}, "[2]": {"details": "Example 2, HMTBA 83 mg, EO 15 mg (Table III), EO1 red thyme, EO2 tea tree"}, "[3]": {"details": "Example 3, HMTBA 83 mg, EO 15 mg (Table V), EO1 cinnamon"}, "[4]": {"details": "Example 4, HMTBA 83 mg, MEO 15 mg (Table VII), MEO 3/4 tea tree and 1/4 cinnamon"}, "[5]": {"details": "Example 8, HMTBA 113 mg, origanum oil 13 mg (Table XII)"}}, "data": [{"substance": "2-hydroxy-4-methylthiobutanoic acid [HMTBA]", "values": [{"measurement": "Effect on bacterial activity measured by Trm (in words)", "setting": "Example 1", "result": "little if any effect"}, {"measurement": "Trm: time for which the rate of production of gas is maximum, Mean", "setting": "[1]", "result": 10.8, "unit": "h"}, {"measurement": "Vf: final volume of gas produced, Mean", "setting": "[1]", "result": 565, "unit": "mL"}, {"measurement": "Trm: time for which the gas production rate is at a maximum, Mean", "setting": "[2]", "result": 20.3, "unit": "h"}, {"measurement": "Vf: final volume of gas produced, Mean", "setting": "[2]", "result": 296.2, "unit": "mL"}, {"measurement": "Trm: time for which the gas production rate is at a maximum, Mean", "setting": "[3]", "result": 28.1, "unit": "h"}, {"measurement": "Vf: final volume of gas produced, Mean", "setting": "[3]", "result": 334.3, "unit": "mL"}, {"measurement": "Trm: time for which the gas production rate is at a maximum, Mean", "setting": "[4]", "result": 15.4, "unit": "h"}, {"measurement": "Vf: final volume of gas produced, Mean", "setting": "[4]", "result": 421, "unit": "mL"}, {"measurement": "Trm difference with the negative control", "setting": "Example 4, negative control Trm 11.1 h", "result": 4.3, "unit": "h"}, {"measurement": "Effect on fermentation / activity of the bacterial flora (in words)", "setting": "Example 8", "result": "no significant effect"}, {"measurement": "Trm, Means", "setting": "[5]", "result": 16.2, "unit": "h"}, {"measurement": "Vf, Means", "setting": "[5]", "result": 353, "unit": "mL"}]}]}
